According to patent US7935698B2, “Heteroaryl-hydrazone compounds” (Synta Pharmaceuticals Corporation, priority 2003, dated 2011):

Tested on: IL-12 production
Experiment: Human in vitro assay: inhibition of IL-12 production in stimulated human PBMC or THP-1 cells (sandwich ELISA)
Assay type: cell-based
Conditions: primed with IFNγ and stimulated with LPS or SAC, IL-12 by ELISA
Description: The biological activities of the compounds of the invention can be evaluated by a number of cell-based assays. One of such assays can be conducted using cells from human peripheral blood mononuclear cells (PBMC) or human monocytic cell line (THP-1). The cells are stimulated with a combination of human interferon-γ (IFNγ) and lipopolysaccharide or a combination of IFNγ and Staphylococcus aureus Cowan I in the presence of a test compound. The level of inhibition of IL-12 production can be measured by determining the amount of p70 by using a sandwich ELISA assay with anti-human IL-12 antibodies. IC50 of the test compound can then be determined. Specifically, PBMC or THP-1 cells are incubated with the test compound. Cell viability was assessed using the bioreduction of MTS [3-(4,5-dimethylthiazol-2-yl)-5-(3-carboxymethoxyphenyl)-2-(4-sulfophenyl)-2H-tetrazolium] (Promega, Madison, Wis.).
Reagents. Staphylococcus aureus Cowan I (SAC) is obtained from Calbiochem (La Jolla, Calif.), and lipopolysaccharide (LPS, Serratia marscencens) is obtained from Sigma (St. Louis, Mo.). Human and mouse recombinant IFNγ are purchased from Boehringer Mannheim (Mannheim, Germany) and Pharmingen (San Diego, Calif.), respectively.
Human In Vitro Assay. Human PBMC were isolated by centrifugation using Ficoll-Paque (Pharmacia Biotech, Uppsala, Sweden) and prepared in RPMI medium supplemented with 10% fetal calf serum (FCS), 100 U/mL penicillin, and 100 μg/mL streptomycin. PBMC were plated in wells of a 96-well plate at a concentration of 5×10^5 cells/well, and primed by adding IFNγ (30 U/mL) for 22 h and stimulated by adding LPS (1 μg/mL), or by adding IFNγ (100 U/mL) and then stimulated by adding SAC (0.01%). A test heteroaryl hydrazone compound was dissolved in DMSO, and added to wells of the 96-well plate. The final DMSO concentration was adjusted to 0.25% in all cultures, including the compound-free control. Human THP-1 cells were plated in wells, primed by adding IFNγ (100 U/mL) for 22 h and stimulated by adding SAC (0.025%) in the presence of different concentrations of the heteroaryl hydrazone compound. Cell-free supernatants were taken 18 h later for measurement of cytokines. Cell viability was assessed using the bioreduction of MTS. Cell survival was estimated by determining the ratio of the absorbance in compound-treated groups versus compound-free control.
The supernatant was assayed for the amount of IL-12p40, IL-12p70, or IL-10 by using a sandwich ELISA with anti-human antibodies, i.e., a Human IL-12 p40 ELISA kit from R&D Systems (Berkeley, Calif.), and a Human IL-12 p70 or IL-10 ELISA kit from Endogen (Cambridge, Mass.). Assays were based on the manufacturer's instructions.
The biological activities of heteroaryl hydrazone compounds were tested on human PBMC or THP-1 cells.

| IC50 [nM] | Structure (SMILES) |
| --- | --- |
| 40 | Cc1cccc(NN=Cc2cc(OCCc3ccccn3)nc(N3CCOCC3)n2)c1 [Compound 6, N-[2-Morpholin-4-yl-6-(2-pyridin-2-yl-ethoxy)-pyrimidin-4-ylmethylene]-N′-m-tolyl-hydrazine] |
| 6.5 | Cc1ccc(C)c(NN=Cc2cc(N3CCOCC3)nc(OCCc3ccccn3)n2)c1 [Compound 4, N-(2,5-Dimethyl-phenyl)-N′-[6-morpholin-4-yl-2-(2-pyridin-2-yl-ethoxy)-pyrimidin-4-ylmethylene]-hydrazine] |

Second part, the compound before the results:

| Structure (SMILES) | IC50 [nM] |
| --- | --- |
| COc1cccc(NN=Cc2cc(N3CCOCC3)nc(OCCc3ccccn3)n2)c1 [Compound 3, N-(3-Methoxy-phenyl)-N′-[6-morpholin-4-yl-2-(2-pyridin-2-yl-ethoxy)-pyrimidin-4-ylmethylene]-hydrazine] | 2.2 |
| Clc1cccc(NN=Cc2cc(N3CCOCC3)nc(OCCc3ccccn3)n2)c1 [Compound 2, N-(3-Chloro-phenyl)-N′-[6-morpholin-4-yl-2-(2-pyridin-2-yl-ethoxy)-pyrimidin-4-ylmethylene]-hydrazine] | 10 |
| Cc1cccc(NN=Cc2cc(N3CCOCC3)nc(OCCc3ccccn3)n2)c1 [Compound 1, N-[6-Morpholin-4-yl-2-(2-pyridin-2-yl-ethoxy)-pyrimidin-4-ylmethylene]-N′-m-tolyl-hydrazine] | 2.2 |
